According to doi:10.1101/2020.06.20.162875v1 (biorxiv, 2020):
Like-named read-outs stand apart in the source and are kept apart here.

Experiments:
[1] = target: T1, PNA (peanut lectin, peanut agglutinin) (Arachis hypogaea, UniProt P02872); experiment: isothermal titration calorimetry; assay type: binding
T1 sequence (P02872 24-259): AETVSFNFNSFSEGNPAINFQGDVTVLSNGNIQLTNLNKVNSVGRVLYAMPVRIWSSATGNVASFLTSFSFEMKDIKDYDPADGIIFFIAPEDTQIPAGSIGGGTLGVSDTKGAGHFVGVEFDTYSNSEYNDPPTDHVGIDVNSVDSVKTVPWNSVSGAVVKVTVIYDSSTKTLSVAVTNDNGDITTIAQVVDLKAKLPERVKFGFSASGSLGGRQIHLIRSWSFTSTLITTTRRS

[2] = target: T1, PNA (peanut lectin, peanut agglutinin); experiment: isothermal titration calorimetry; assay type: binding; remark: listed apart in the source

Row | SMILES | Kd [2] [µM] | other results
1 | OC[C@H]1O[C@@H](O[C@H]2[C@H](O)[C@@H](O)C(O)O[C@@H]2CO)[C@H](O)[C@@H](O)[C@H]1O (some centres unmarked) [Lactose] |  | Kd ([1]; 298 K, independent single-site model, reference compound): 644 µM
2 | CO[C@H]1O[C@H](Cn2cc(CSC[C@H]3O[C@@H](S[C@@H]4O[C@H](CO)[C@H](O)[C@H](O)[C@H]4O)[C@H](O)[C@@H](O)[C@@H]3O)nn2)[C@@H](O)[C@H](O)[C@H]1O [STGD] | 420 | 
3 | OC[C@H]1O[C@@H](S[C@@H]2O[C@H](CO)[C@H](O)[C@H](O)[C@H]2O)[C@H](O)[C@@H](O)[C@H]1O [TDG] |  | Kd [1]: 524 µM
4 | O=C(CCC(=O)N[C@@H]1O[C@H](CO)[C@H](O)[C@H](O)[C@H]1O)NCc1cn([C@H]2CO[C@H]3[C@@H]2OC[C@@H]3n2cc(CNC(=O)CCC(=O)N[C@@H]3O[C@H](CO)[C@H](O)[C@H](O)[C@H]3O)nn2)nn1 [diNGS] | 698 | 
5 | OC[C@H]1O[C@@H](S[C@@H]2O[C@H](CSCc3cn(C[C@H]4O[C@H](O[C@H]5O[C@H](Cn6cc(CSC[C@H]7O[C@@H](S[C@@H]8O[C@H](CO)[C@H](O)[C@H](O)[C@H]8O)[C@H](O)[C@@H](O)[C@@H]7O)nn6)[C@@H](O)[C@H](O)[C@H]5O)[C@H](O)[C@@H](O)[C@@H]4O)nn3)[C@@H](O)[C@H](O)[C@H]2O)[C@H](O)[C@@H](O)[C@H]1O [diSTGD] | 161 | 

Now from value to compound, other results behind:

Row | Kd [2] [µM] | SMILES | other results
6 | 1620 | CO[C@H]1O[C@H](Cn2cc(CNC(=O)CCC(=O)N[C@@H]3O[C@H](CO)[C@H](O)[C@H](O)[C@H]3O)nn2)[C@@H](O)[C@H](O)[C@H]1O [NGS] | 
7 | 552 | C#CCSC[C@H]1O[C@@H](S[C@@H]2O[C@H](CO)[C@H](O)[C@H](O)[C@H]2O)[C@H](O)[C@@H](O)[C@@H]1O [STG] | 
8 | 544 | O=C(NCc1cn(C2COC3C2OCC3n2cc(CNC(=O)[C@H](O)[C@@H](O)C(=O)N[C@@H]3O[C@H](CO)[C@H](O)[C@H](O)[C@H]3O)nn2)nn1)[C@H](O)[C@@H](O)C(=O)N[C@@H]1O[C@H](CO)[C@H](O)[C@H](O)[C@H]1O (some centres unmarked) [diNGT] | 
